Test results published in US5017618A, “Labile derivatives of ketone analogs of 3-substituted-1-alkylamino-2-propanols and their use as beta-adrenergic blockers” (priority 1989, dated 1991).

Tests used:
[1] = in vivo
Description: (§2) A group of seven adult male Sprague-Dawley rats weighing 150-250 g was used. […] After 1, 3, 5, 20, 40 and 60 minutes, one mL of blood was withdrawn from the jugular vein and dropped immediately into a tared tube containing 1 mL of ice-cold acetonitrile. The tubes were vigorously shaken, centrifuged, decanted and analyzed for propranolol 1a and propranolone oxime 5a by HPLC. Quantitation was done by using a calibration curve obtained by addition of known amounts of propranolol oxime HCl 6a to blood obtained from a control rat pretreated with saline solution.
(§3) A high pressure liquid chromatography (HPLC) method was developed for the assay of the β-blockers and their ketoxime analogs in biological fluids. […] An ASI reverse phase chrompack C18 column, operated at ambient temperature, was used for all separation. The mobile phase used for separation of propranolol 1a and propranolone oxime 5a consisted of water (90 mL), 1-heptanesulfonic acid (1g), 0.1M acetic acid (10 mL), 0.1M triethanolamine (100 mL) and methanol (799 mL).

rabbit eyes = experiment: Local action of the drugs on the eyes (irritation, congestion, redness, lacrimation); type: in vivo, rabbit (male New Zealand albino); conditions: 1% and 2.5%, both eyes, rabbits
[2] = In vivo distribution-metabolism in ocular tissues of rabbits; conditions: rabbit, topical or ocular, 1 %
Description: (§1) Adult male New Zealand albino rabbits weighing 2.5-3.5 kg were used. Standard doses of 100 μl of 1% solution of the drugs in saline solution were administered topically to both eyes of each rabbit. After appropriate time intervals (30, 60 and 120 minutes), the animals were sacrificed. Aqueous humor was obtained by making a single puncture at the limbus using a 25 g×5/8" needle attached to 1 cm^3 syringe. Then the cornea and the iris-ciliary body were isolated. The tissues were pooled and homogenized using a Tekmar SDT tissuemizer in ice cold perchloric acid (0.05M) which contained 0.05% sodium metabisulfite as antioxidant. Samples were then rehomogenized in CH3 OH to prepare 10% homogenates, transferred to micro-filters and centrifuged for 20 minutes at 10000 r/minute to precipitate proteins. Aqueous humor was analyzed as such without any further dilution. Aliquots of 5-20 μl of the 10% tissue homogenate samples were analyzed by HPLC.

[3] = tested on: ocular tissues of rabbits; experiment: as above; conditions: for Concentration of propranolol: after topical propranolol.HCl 1a 1%; for Tissue concentration: after topical propranolone oxime HCl 6a 1%
Description: as §1

[4] = In vivo distribution-metabolism in rat's blood
Description: as §2, §3

rabbit iris-ciliary body [5] = experiment: Stereospecificity of enzymatic reduction in iris-ciliary body (chiral derivatization HPLC); type: in vivo; conditions: iris-ciliary body of rabbit treated with the oxime
Excerpt: Finally, it was shown that the enzymatic reduction of the ketone is stereospecific. The extract residue from the iris-ciliary body of rabbit treated with 1-(isopropylamino)-3-(1-naphthyloxy)-2-propranolone oxime was reacted with the chiral reagent, 2,3,4,6-tetra-O-acetyl-β-D-glucoppyranosyl isocyanate, in acetonitrile and analyzed by the HPLC procedure of Sedman et al, J. Chromatogr. 278, 199-203, 1983 (Supelcosil LC-18 reversed-phase column of 7.5 cm×4.6 mm with 3 μm particles, mobile phase: 60% acetonitrile in 0.02M aqueous monobasic ammonium phosphate solution, 1 mL/min flow rate, UV detection at 254 nm).

iris-ciliary body = conditions: topical application to the eye; cited from earlier work
rabbit iris-ciliary body [6] = experiment: Reduction of ketone in the iris-ciliary body; type: in vivo; conditions: 0.5% hydrochloride salt (w/v); 1.0 hour after instillation
Description: It was then shown that reduction of 1-(isopropylamino)-3-(1-naphthyloxy)-2-propanone takes place in the iris-ciliary body. The compound was administered to the rabbit eye in propylene glycol/ethanol/pH=5.9 ophthalmic buffer (25:25:50 mixture, v/v) solution (concentration 0.5% hydrochloride salt, w/v). The iris-ciliary body was removed, extracted and analyzed 1.0 hour after the instillation of the compound, as described in the preceding paragraph.

[7] = cited from earlier work
[8] = aqueous humor, Concentration of propranolol
[9] = aqueous humor, Tissue concentration
[10] = cornea, Concentration of propranolol
[11] = iris-ciliary body, Tissue concentration

Structure (SMILES): CC(C)NCC(O)COc1cccc2ccccc12 (stereo not shown) [Propranolol 1a, 1-(isopropylamino)-3-(1-naphthyloxy)-2-propanol]
- detection of propranolol in rat's blood [1]: not detected in rat's blood
- ocular irritation (rabbit eyes): ocular irritation which always accompanied propranolol administration at both dose levels
- concentration at 0.5 h [2, 8]: 1280 ± 190 ng/g
- concentration at 1 h [2, 8]: 260 ± 80 ng/g
- concentration at 0.5 h [2, 9]: 40 ± 20 ng/g
- concentration at 1 h [2, 9]: 710 ± 110 ng/g
- concentration at 0.5 h [2, 10]: 47100 ± 5570 ng/g
- concentration at 1 h [2, 10]: 14500 ± 2970 ng/g
- concentration at 0.5 h ([2]; cornea, Tissue concentration): 1680 ± 750 ng/g
- concentration at 1 h ([2]; cornea, Tissue concentration): 1140 ± 290 ng/g
- concentration at 2 h ([2]; cornea, Tissue concentration): 1140 ± 220 ng/g
- concentration at 0.5 h ([2]; iris-ciliary body, Concentration of propranolol): 8050 ± 1470 ng/g
- concentration at 0.5 h [2, 11]: 2110 ± 290 ng/g
- concentration at 1 h [2, 11]: 1790 ± 200 ng/g
- concentration at 2 h [2, 11]: 430 ± 110 ng/g
- Concentration of propranolol ([3]; aqueous humor, 120 min.): 0.00 ± 0.00 mcg/g tissue
- Concentration of propranolol ([3]; cornea, 120 min.): 0.00 ± 0.00 mcg/g tissue
- Concentration of propranolol ([3]; iris-ciliary body, 60 min.): 0.00 ± 0.00 mcg/g tissue
- Concentration of propranolol ([3]; iris-ciliary body, 120 min.): 0.00 ± 0.00 mcg/g tissue
- Tissue concentration ([3]; aqueous humor, 120 min.): 0.00 ± 0.00 mcg/g tissue
- detection of propranolol in eye compartments ([3]; rabbit, in vivo): could be detected in measurable concentrations in the different eye compartments for the first two hours
- detection of propranolol in eye tissues ([3]; rabbit, in vivo): could not be detected in any of the tested eye tissues
- detection of propranolol in iris-ciliary body ([3]; rabbit, in vivo): completely disappeared from the iris-ciliary body

Structure (SMILES): CC(C)NCC(COc1cccc2ccccc12)=NO [propranolone oxime 5a, 1-(Isopropylamino)-3-(1-naphthyloxy)-2-propanone oxime]
- metabolite in blood ([4]; after i.v. oxime, disappeared 5 minutes after injection): another more polar compound was detected
- half-life ([4]; blood, iv, 6 mg/kg): 7.64 ± 0.55 min
- presence of oxime in blood ([4]; one hour after i.v. administration): completely disappeared from the blood
- stereospecificity: enantiomer of propranolol formed (rabbit iris-ciliary body [5]): The sole presence of the S-(-)-enantiomer of 1-(isopropylamino)-3-(1-naphthyloxy)-2-propanol (propranolol) was established
- concentration at 0.5 h [2, 9]: 820 ± 90 ng/g
- concentration at 1 h [2, 9]: 800 ± 60 ng/g
- concentration at 0.5 h ([2]; cornea, Tissue concentration): 23800 ± 4910 ng/g
- concentration at 1 h ([2]; cornea, Tissue concentration): 16400 ± 5800 ng/g
- concentration at 0.5 h [2, 11]: 7790 ± 1100 ng/g
- Tissue concentration ([3]; aqueous humor, 120 min.): 0.00 ± 0.00 mcg/g tissue
- Tissue concentration ([3]; cornea, 120 min.): 0.00 ± 0.00 mcg/g tissue
- Tissue concentration ([3]; iris-ciliary body, 60 min.): 0.00 ± 0.00 mcg/g tissue
- Tissue concentration ([3]; iris-ciliary body, 120 min.): 0.00 ± 0.00 mcg/g tissue

Structure (SMILES): CNCC(=O)c1ccc(O)c(O)c1 [adrenalone]
- conversion to adrenaline in the eye (iris-ciliary body): not adrenalone itself can be converted via a reduction-hydrolysis sequence to deliver adrenaline

Structure (SMILES): CC(C)NCC(=O)COc1cccc2ccccc12 [1-(isopropylamino)-3-(1-naphthyloxy)-2-propanone]
- enzymatic reduction product in iris-ciliary body (rabbit iris-ciliary body [6]): The enzymatic reduction product, 1-(isopropylamino)-3-(1-naphthyloxy)-2-propanol, i.e. propranolol, was clearly identified

Structure (SMILES): CC(C)(C)NC[C@H](O)COc1nsnc1N1CCOCC1 [timolol]
- side effects secondary to topical ocular administration [7]: a vast number of serious cardiovascular, respiratory, CNS and ocular side effects
- detection of parent β-adrenergic antagonist in eye compartments ([3]; after ophthalmic 6b, low dose level used): could not be found in any of the eye compartments
